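Compound exposure: 48 hours, 5 concentrations, 96-well plates. TGI marks complete inhibition of growth.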
How the values were obtained:
Experiment in all cases: inhibition of tumour cell growth, NCI panel, 48 h
SF-268 CNS = tested on: SF-268 CNS
IGROV1 ovarian = tested on: IGROV1 ovarian
786-0 renal = tested on: 786-0 renal
SK-MEL-28 melanoma = tested on: SK-MEL-28 melanoma
SW-620 colon = tested on: SW-620 colon
MCF7 breast = tested on: MCF7 breast
MDA-N = tested on: MDA-N
TK-10 renal = tested on: TK-10 renal
SN12C renal = tested on: SN12C renal
HCT-116 colon = tested on: HCT-116 colon
UO-31 renal = tested on: UO-31 renal
SF-539 CNS = tested on: SF-539 CNS
NCI-H226 lung = tested on: NCI-H226 lung
MALME-3M melanoma = tested on: MALME-3M melanoma
HOP-92 NSCLC = tested on: HOP-92 NSCLC
KM12 colon = tested on: KM12 colon
HOP-62 NSCLC = tested on: HOP-62 NSCLC
LOX IMVI melanoma = tested on: LOX IMVI melanoma
OVCAR-8 ovarian = tested on: OVCAR-8 ovarian
HCC-2998 colon = tested on: HCC-2998 colon
PC-3 prostate = tested on: PC-3 prostate
MOLT-4 leukemia = tested on: MOLT-4 leukemia
CAKI-1 renal = tested on: CAKI-1 renal
HCT-15 colon = tested on: HCT-15 colon
CCRF-CEM leukemia = tested on: CCRF-CEM leukemia
A498 renal = tested on: A498 renal
SK-MEL-2 melanoma = tested on: SK-MEL-2 melanoma
HS 578T breast = tested on: HS 578T breast
COLO 205 colon = tested on: COLO 205 colon
RPMI-8226 leukemia = tested on: RPMI-8226 leukemia
A549 NSCLC = tested on: A549 NSCLC
T-47D breast = tested on: T-47D breast
SNB-75 CNS = tested on: SNB-75 CNS
NCI-H522 lung = tested on: NCI-H522 lung
MDA-MB-231 breast = tested on: MDA-MB-231 breast
OVCAR-5 ovarian = tested on: OVCAR-5 ovarian
OVCAR-3 ovarian = tested on: OVCAR-3 ovarian
BT-549 breast = tested on: BT-549 breast
HL-60(TB) leukemia = tested on: HL-60(TB) leukemia
NCI/ADR-RES ovarian = tested on: NCI/ADR-RES ovarian
SK-MEL-5 melanoma = tested on: SK-MEL-5 melanoma
ACHN renal = tested on: ACHN renal
U251 CNS = tested on: U251 CNS
EKVX NSCLC = tested on: EKVX NSCLC
SF-295 CNS = tested on: SF-295 CNS
SNB-19 CNS = tested on: SNB-19 CNS
RXF 393 renal = tested on: RXF 393 renal
K-562 leukemia = tested on: K-562 leukemia
SK-OV-3 ovarian = tested on: SK-OV-3 ovarian
HT29 colon = tested on: HT29 colon
NCI-H460 lung = tested on: NCI-H460 lung
OVCAR-4 ovarian = tested on: OVCAR-4 ovarian
UACC-257 melanoma = tested on: UACC-257 melanoma
M14 melanoma = tested on: M14 melanoma
MDA-MB-435 = tested on: MDA-MB-435
NCI-H23 lung = tested on: NCI-H23 lung
UACC-62 melanoma = tested on: UACC-62 melanoma
DU-145 prostate = tested on: DU-145 prostate
SR leukemia = tested on: SR leukemia

Measured: TGI

O=C(NNS(=O)(=O)c1ccccc1)c1cccnc1
not listed: SR leukemia
> 100 µM: all other assays above

N#C/C(N)=C(\C#N)N=CNc1ccc(N)cc1
not listed: HOP-92 NSCLC | RXF 393 renal
> 100 µM: all other assays above

O=S(=O)(O)c1ccc2c(N=Nc3ccc(Cl)cc3)c(O)ccc2c1
not listed: MCF7 breast | SF-539 CNS | NCI-H226 lung | HCC-2998 colon | HL-60(TB) leukemia | NCI-H460 lung | SR leukemia
> 100 µM: all other assays above

CN1C(=O)CC2CCC(=O)N2c2cccnc21 (stereo not drawn)
not listed: HOP-92 NSCLC | PC-3 prostate | MOLT-4 leukemia | A498 renal | SNB-75 CNS | OVCAR-5 ovarian | RXF 393 renal | SK-OV-3 ovarian
> 100 µM: all other assays above
